We go through five molecules from patent US12365643B2, “Phenoxy carboxylic acid compounds and medical uses thereof” (QINGDAO RISING BIOTECHNOLOGY CO., LTD, priority 2018, dated 2025).

Each structure is given as a SMILES string.

Experiment [1] deals with antioxidant response element (ARE). Briefly: ARE luciferase reporter gene activity in HepG2 cells. Type of experiment: cell-based, human. The conditions noted are these: 50 μM, HepG2 stably transfected (FIG. 4). The protocol:
(§1) NF-κB was the most important inflammatory signal pathway. SW480 human colon cancer cells stably transfected with a luciferase reporter gene driven by NF-κB were used to determine the effects of the compound of the present application and the control drug gemfibrozil on NF-κB transcriptional activity, which comprised the following steps. • (1) Cells stably transfected with NF-κB Luc were cultivated to exponential growth, inoculated at a culture medium concentration of 1×10^5/[…] in a 24-well plate, and cultured for 24 hours, the medium was discarded, and the test compound or gemfibrozil formulated with serum-free medium at 50 μM were added to the 24-well plate and incubation was continued for 6 hours. After washing once with 200 μL of PBS, 100 μL of reporter gene cell lysis buffer was added, the cells were lysed on ice for 10 minutes, and the cell lysate was collected by pipetting. • (2) After centrifugation was performed at 8000 rpm and 4° C. for 10 min, the supernatant was pipetted for fluorescence assay. • (3) The measurement gap time of chemiluminescence analyzer was set to 2 s and the measurement time was set to 10 s. Automatic sample injection was adopted, 50 μL of luciferase assay reagent was added to each well. The reporter gene cell lysis buffer was used as a blank control. • (4) After centrifugation, the supernatant was taken, and the BCA method was used to determine the protein concentration so as to normalize the reporter gene results.
In this experimental example, the luciferase activity in HepG2 human liver cancer cells stably transfected with a luciferase reporter gene driven by antioxidant response element (ARE) was determined to evaluate the regulatory effects of the compound of the present application and gemfibrozil on the transcriptional activity of transcription factor Nrf2 and the cellular oxidative stress response signals, in which the operation process of the reporter gene assay was the same as that of Experimental Example 2.2.
In general terms: In a reporter assay the amount or activity of a reporter protein is the signal.

For a further experiment, the system named is phosphorylated GSK3β. Put plainly: Phosphorylated GSK3β level by Western blotting in HepG2. Type of experiment: cell-based, human. The conditions noted are these: 1 μM, 24 hours, HepG2, Western blotting (FIG. 6B). An excerpt:
(§2) Carnitine palmitoyltransferase (CPT1α) is a rate-limiting enzyme of fatty acid oxidation. When the body or tissues are lacking in energy, CPT1α catalyzes the entry of fatty acids into mitochondria for […], and at the same time, CPT1α is also involved in the regulation of fatty acid-induced insulin resistance and inflammation. Protein kinase B/glycogen synthase kinase 3β (AKT/GSK3β) signaling pathway and insulin receptor substrate 1 (IRS-1) are key signaling pathways that regulate glucose metabolism in response to insulin signal. Therefore, by determining the effects of compounds on the CPT1α protein level and the AKT, GSK3β and IRS-1 protein phosphorylation levels, it is possible to evaluate the regulatory effects of the compounds on glycolipid metabolism.
(§3) After human liver cancer cells HepG2 were incubated with the compound of the present application or the control drug at 1 μM for 24 hours, the CPT1α protein level and the AKT, GSK3β and IRS-1 phosphorylated protein levels in the cells were determined by Western blotting; after gray-scale scanning by using Image J15.0.1, normalization was performed by using β-tubulin protein level as internal control, and the quantitative analysis results were shown in FIG. 6.
For orientation: In western blotting, separated proteins are transferred to a membrane and probed.

The test system of another experiment is CPT1α. Briefly: CPT1α protein level by Western blotting in HepG2. Type of experiment: cell-based, human. The conditions noted are these: 1 μM, 24 hours, HepG2, Western blotting (FIG. 6A).
Source text: as §2, §3

Another experiment deals with ACOX1. Briefly: ACOX1 mRNA expression by real-time quantitative PCR in HepG2. Type of experiment: cell-based, human. The conditions noted are these: 1 μM, 6 hours, HepG2 (FIG. 5D). The source says: (§4) Peroxisome proliferation factor activated receptor (PPAR) is an important nuclear receptor that regulates glycolipid metabolism, including three subtypes: α, β/δ and γ. Peroxisome proliferator-activated receptor γ coactivator 1α (PGC-1α) is its auxiliary transcriptional activator. Acyl-CoA oxidase 1 (ACOX1) is the first rate-limiting enzyme for fatty acid β oxidation. Fatty acid binding protein 1 (FABP1) is highly expressed in liver, and can bind fatty acid, heme and other molecules to reduce their toxicity and damage. Up-regulating the expression level of these genes helps to improve the body's metabolism, and their agonists are an important class of anti-metabolic drugs. After the compound of the present application (1 μM) and the control drug gemfibrozil (1 μM) were incubated with human liver cancer cells HepG2 for 6 hours, real-time fluorescent quantitative PCR method was used to determine the relative expression of mRNA of related genes in the cells.
(§5) The company which synthesized the primers was Suzhou Hongxun Biotechnology Co., Ltd. Tranzol reagent (Tranzol total RNA extraction reagent, TransGen Biotech) was used to extract total RNA from tissues. 5× All-In-One RT MasterMix reverse transcription kit (Abcam, USA) and real-time quantitative PCR Master Mix (Aidlab Biotechnologies Co., Ltd) were used. Bio-Rad CFX Connect™ Real-Time PCR Detection System for qPCR was used, and 2^−ΔΔCT method was used for data analysis. The expression level of mRNA in the normal control group was set to 1, and the relative expression level of mRNA in the administration group was calculated, so as to confirm whether the active compound affected the PPAR pathway, thereby further regulating lipid metabolism.

The test system of the next experiment is phosphorylated IRS-1. Briefly: Phosphorylated IRS-1 level by Western blotting in HepG2. Type of experiment: cell-based, human. The conditions noted are these: 1 μM, 24 hours, HepG2, Western blotting (FIG. 6C).
Source text: as §2, §3

In the next experiment the test system is NF-κB. Briefly: NF-κB luciferase reporter gene transcriptional activity in SW480 cells. Type of experiment: cell-based, human. Particulars: 50 μM, 6 hours, SW480 stably transfected (FIG. 3). The protocol:
as §1

In experiment [2] the test system is RAW264.7 mouse macrophages. Put plainly: Determination of NO generation induced by LPS. Type of experiment: cell-based. The conditions noted are these: 10 μM, 1 μg/mL LPS, 24 hours, RAW264.7 (FIG. 2). The protocol:
The results are expressed as the multiple of the NO content in the cell culture supernatant of the administration group (10 μM) as compared with that in the cell culture supernatant of the control group (DMSO group), in which compared with the control group, *P<0.05, **P<0.01, ***P<0.001.
NO is a reactive nitrogen species (RNS) and an important gas signal molecule. Macrophages could convert arginine into NO which participated in the body's inflammatory response. Therefore, determination of inhibitory activity of a drug on NO generation was one of the classic methods to evaluate drug's anti-inflammatory ability. RAW264.7 cells at exponential growth phase were inoculated into a 96-well plate at 1×10^4 cells/200 μL. well of medium. After adherence, the medium was discarded, and the cells were subjected to drug treatments. Normal group (serum-free medium), LPS model group (serum-free medium containing 1 μg/mL LPS), LPS+drug group (serum-free medium containing 1 μg/mL LPS, 10 μM gemfibrozil or the compound of the present application) were established, and 3 repeated wells were set for each group. After 24 hours incubation in incubator, cell supernatant of each well was collected and assay was performed according to the instructions of NO determination kit (Nanjing Jiancheng). The absorbance value of each well at wavelength of 540 nm was read and NO content was calculated.

The next experiment deals with PGC1α. Put plainly: PGC1α mRNA expression by real-time quantitative PCR in HepG2. Particulars: 1 μM, 6 hours, HepG2 (FIG. 5C). Type of experiment: cell-based, human.
Source text: as §4, §5

Another experiment deals with PPARγ. Briefly: PPARγ mRNA expression by real-time quantitative PCR in HepG2. Particulars: 1 μM, 6 hours, HepG2 (FIG. 5B). Type of experiment: cell-based, human.
Source text: as §4, §5

Regarding `Cc1ccc(C)c(OCCCC(C)(C)C(=O)O)c1Br` [BJMU-404, 5-(2-bromo-3,6-dimethylphenoxy)-2,2-dimethylpentanoic acid], the “ARE reporter gene activity” value in [1] is “could significantly activate the ARE reporter gene activity”. The “phosphorylation level of GSK3β” value with phosphorylated GSK3β was “significantly increased the phosphorylation level of GSK3β”. For the same molecule, the CPT1α protein level entry with CPT1α is “significantly increased CPT1α protein level”. Further, the “ACOX1 mRNA expression” value with ACOX1 was “significantly induced ACOX1 mRNA expression”. For the same molecule, the “phosphorylation level of IRS-1” value in the experiment with phosphorylated IRS-1 is reported as “significantly increased the phosphorylation level of IRS-1”. In addition, the “activity of NF-κB reporter gene” value in the experiment with NF-κB is recorded as “could significantly inhibit the activity of NF-κB reporter gene”.
As for `Cc1cc(Br)c(C)c(Br)c1OCCCC(C)(C)C(=O)O` [BJMU-109, 5-(2,4-dibromo-3,6-dimethylphenoxy)-2,2-dimethylpentanoic acid], in the experiment with phosphorylated GSK3β, the “phosphorylation level of GSK3β” value is “significantly increased the phosphorylation level of GSK3β”. In addition, in the experiment with ACOX1, the “ACOX1 mRNA expression” value was “significantly induced ACOX1 mRNA expression”. Besides, the “NO generation induced by LPS” value in [2] is on record as “could inhibit NO generation”. For the same molecule, the “phosphorylation level of IRS-1” value with phosphorylated IRS-1 was “significantly increased the phosphorylation level of IRS-1”.
`Cc1cc(Br)c(C)c(C)c1OCCCC(C)(C)C(=O)O` [BJMU-409, 5-(4-bromo-2,3,6-trimethylphenoxy)-2,2-dimethylpentanoic acid]: the “ARE reporter gene activity” value in [1] was “could significantly activate the ARE reporter gene activity”. Also, the “phosphorylation level of GSK3β” value in the experiment on phosphorylated GSK3β is “significantly increased the phosphorylation level of GSK3β”. Moreover, the CPT1α protein level entry with CPT1α was “significantly increased CPT1α protein level”. Further, the “ACOX1 mRNA expression” value in the experiment on ACOX1 is given as “significantly induced ACOX1 mRNA expression”. In addition, the “phosphorylation level of IRS-1” value in the experiment with phosphorylated IRS-1 is “significantly increased the phosphorylation level of IRS-1”. Further, in the experiment on PGC1α, the “PGC1α mRNA expression” value was “significantly induced PGC1α mRNA expression”.
Turning to `Cc1cc(OCCCC(C)(C)C(=O)O)c(CO)cc1Br` [BJMU-502, 5-(4-bromo-2-(hydroxymethyl)-5-methylphenoxy)-2,2-dimethylpentanoic acid], in the experiment with PPARγ, the “PPARγ mRNA expression” value was “significantly induced PPARγ mRNA expression”. The “ARE reporter gene activity” value in [1] was “could significantly activate the ARE reporter gene activity”. For the same molecule, the CPT1α protein level entry in the experiment on CPT1α is “significantly increased CPT1α protein level”. Further, in the experiment on ACOX1, the “ACOX1 mRNA expression” value is reported as “significantly induced ACOX1 mRNA expression”. For the same molecule, in [2], the “NO generation induced by LPS” value is reported as “could inhibit NO generation”. In addition, in the experiment on phosphorylated IRS-1, the “phosphorylation level of IRS-1” value is on record as “significantly increased the phosphorylation level of IRS-1”. The “PGC1α mRNA expression” value in the experiment on PGC1α is “significantly induced PGC1α mRNA expression”.
`Cc1cc(F)c(C)c(OCCCC(C)(C)C(=O)O)c1` [BJMU-213, 5-(3-fluoro-2,5-dimethylphenoxy)-2,2-dimethylpentanoic acid]: the “phosphorylation level of GSK3β” value in the experiment with phosphorylated GSK3β is “significantly increased the phosphorylation level of GSK3β”. Further, the CPT1α protein level entry in the experiment on CPT1α is reported as “significantly increased CPT1α protein level”. In addition, the “phosphorylation level of IRS-1” value with phosphorylated IRS-1 is “significantly increased the phosphorylation level of IRS-1”.
